From patent US10752690B2, “Biologically active molecule conjugates, reagents and methods of manufacture, and therapeutic uses” (REGENERON PHARMACEUTICALS, INC., priority 2014, dated 2020)
Residues, ends and D or L forms follow the SMILES beside them.

What was measured:
Assay type in all cases: cell-based
HEK293 = assay: In vitro cytotoxicity assay (CCK8 cell viability), native HEK293 cells (no target expressed); settings: Homo sapiens, HEK293, 72 h
Procedure: (§1) Cells were seeded in Nunclon Delta Surface 96 well plates at 1000 (HEK293 and HEK293/PRLR) or 6000 (T47D) cells per well, and cells were grown overnight in complete growth media. For cell viability curves, serially diluted conjugates or free representative payloads were added to the cells at final concentrations ranging from 100 nM to 5 pM and incubated for 3 days. To measure viability, cells were incubated with CCK8 (Dojindo) for the final 1-3 hours and the absorbance at 450 nm (OD450) was determined on a Victor X4 (PerkinElmer). Background OD450 levels (CCK8) from digitonin ([…]) treated cells were subtracted from all wells and viability is expressed as a percentage of the untreated controls. IC50 values were determined from a four-parameter logistic equation over a 10-point response curve (GraphPad Prism). Maytansinoid conjugate curves and IC50 values are corrected for payload equivalents based on the UV DAR value. For the auristatin (MMAF) conjugate, the IC50 values are assigned a DAR of 1 (i.e., equal to antibody concentration) since a good estimate cannot be obtained by UV or mass spectrometry.

HEK293/hPRLR = assay: In vitro cytotoxicity assay (CCK8 cell viability), engineered HEK293/hPRLR cells; settings: Homo sapiens, HEK293, 72 h
Procedure: as §1

T47D = assay: In vitro cytotoxicity assay (CCK8 cell viability), endogenous cell line T47D; settings: Homo sapiens, 72 h
Procedure: as §1

Measured: IC50

CC[C@H](C)[C@@H]([C@@H](CC(=O)N1CCC[C@H]1[C@H](OC)[C@@H](C)C(=O)N[C@@H](Cc1ccccc1)C(=O)O)OC)N(C)C(=O)[C@@H](NC(=O)[C@@H](NC)C(C)C)C(C)C [compound 27, Monomethyl Auristatin F] (HELM PEPTIDE1{[meV].V.[CC[C@H](C)[C@@H]([C@@H](CC(=O)[*:2])OC)N(C)[*:1]].[CO[C@H]([C@@H](C)C(=O)[*:2])[C@@H]1CCCN1[*:1]].F}$$$$V2.0)
> 100 nM: all assays above
